Laboratory results as given in the supplement of paper PMC10307832.

Key:
Test in all cases: relative viability (nuclei count vs DMSO), 5 days (fraction); higher = more cells survive
RO-3306 + Pictilisib = compound: C1=CC2=C(C=CC(=C2)C=C3C(=O)NC(=NCC4=CC=CS4)S3)N=C1 [RO-3306] + CS(=O)(=O)N1CCN(Cc2cc3nc(-c4cccc5[nH]ncc45)nc(N4CCOCC4)c3s2)CC1 [Pictilisib] (partner 1 µM)
Summary of the method: (§1)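 Relative viability is defined as nuclei in treated wells over nuclei in vehicle wells. Duplicate plates were run and medians reported. Lung cancer cell lines in 1536-well plates were dosed by pin tool one day after seeding, with one drug or with a fixed anchor-drug dose plus five library-drug doses (not always all listed) in √10 steps, and nuclei were counted after 5 days.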

RO-3306 + Olaparib = compound: C1=CC2=C(C=CC(=C2)C=C3C(=O)NC(=NCC4=CC=CS4)S3)N=C1 [RO-3306] + O=C(c1cc(Cc2n[nH]c(=O)c3ccccc23)ccc1F)N1CCN(C(=O)C2CC2)CC1 [Olaparib] (partner 8 µM)
Summary of the method: as §1

[1] = compound: O=S(=O)(c1ccccc1)N(CC(F)(F)F)c1ccc(C(O)(C(F)(F)F)C(F)(F)F)cc1 + CC(=O)c1c(C)c2cnc(Nc3ccc(N4CCNCC4)cn3)nc2n(C2CCCC2)c1=O [Palbociclib] (partner 0.5 µM)
Summary of the method: as §1

[2] = compound: O=S(=O)(c1ccccc1)N(CC(F)(F)F)c1ccc(C(O)(C(F)(F)F)C(F)(F)F)cc1 + NC(=O)Nc1cc(-c2cccc(F)c2)sc1C(=O)N[C@H]1CCCNC1 [AZD7762] (partner 0.2 µM)
Summary of the method: as §1

[3] = compound: O=S(=O)(c1ccccc1)N(CC(F)(F)F)c1ccc(C(O)(C(F)(F)F)C(F)(F)F)cc1 + O=C(c1cc(Cc2n[nH]c(=O)c3ccccc23)ccc1F)N1CCN(C(=O)C2CC2)CC1 [Olaparib] (partner 8 µM)
Summary of the method: as §1

| Cell Line | relative viability (RO-3306 + Pictilisib; first compound 0.01 µM) | relative viability (RO-3306 + Pictilisib; first compound 0.03162 µM) | relative viability (RO-3306 + Pictilisib; first compound 0.1 µM) | relative viability (RO-3306 + Pictilisib; first compound 0.3162 µM) | relative viability (RO-3306 + Pictilisib; first compound 1 µM) | relative viability (RO-3306 + Olaparib; first compound 0.01 µM) | relative viability (RO-3306 + Olaparib; first compound 0.03162 µM) | relative viability (RO-3306 + Olaparib; first compound 0.1 µM) | relative viability (RO-3306 + Olaparib; first compound 0.3162 µM) | relative viability (RO-3306 + Olaparib; first compound 1 µM) | relative viability ([1]; first compound 0.8 µM) | relative viability ([1]; first compound 2.53 µM) | relative viability ([1]; first compound 8 µM) | relative viability ([2]; first compound 0.8 µM) | relative viability ([2]; first compound 2.53 µM) | relative viability ([2]; first compound 8 µM) | relative viability ([3]; first compound 0.8 µM) | relative viability ([3]; first compound 2.53 µM) | relative viability ([3]; first compound 8 µM) |
| --- | --- | --- | --- | --- | --- | --- | --- | --- | --- | --- | --- | --- | --- | --- | --- | --- | --- | --- | --- |
| HCC-44 | 0.581 | 0.524 | 0.619 | 0.689 | 0.557 | 1.01 | 0.958 | 1 | 1.01 | 1.02 | 0.982 | 0.913 | 0.903 | 1.04 | 0.988 | 0.994 | 0.932 | 0.969 | 0.999 |
| PC-3 [JPC-3] | 0.725 | 0.717 | 0.672 | 0.769 | 0.882 | 1.21 | 1.07 | 1.11 | 1.17 | 1.12 | – | 0.381 | 0.532 | – | 0.763 | 0.75 | – | 1.09 | 1.1 |
| NCI-H1944 | 0.283 | 0.299 | 0.313 | 0.368 | 0.325 | 0.443 | 0.439 | 0.346 | 0.414 | 0.433 | 0.342 | 0.303 | 0.332 | 0.546 | 0.501 | 0.581 | 0.407 | 0.39 | 0.396 |
| HCC-827 | 0.913 | 0.983 | 0.878 | 1.07 | 1.05 | 0.705 | 0.67 | 0.627 | 0.715 | 0.666 | 0.513 | 0.418 | 0.388 | 0.209 | 0.187 | 0.178 | 0.612 | 0.627 | 0.63 |
| NCI-H1666 | 0.451 | 0.407 | 0.389 | 0.35 | 0.406 | 0.749 | 0.749 | 0.693 | 0.685 | 0.729 | 0.645 | 0.657 | 0.601 | 0.806 | 0.76 | 0.716 | 0.757 | 0.683 | 0.679 |
| NCI-H2126 | 0.413 | 0.426 | 0.506 | 0.425 | 0.477 | 0.945 | 0.901 | 0.902 | 0.9 | 0.932 | 0.344 | 0.345 | 0.355 | 1.19 | 1.1 | 0.999 | 0.999 | 0.878 | 0.803 |
| LXF-289 | 0.781 | 0.677 | 0.806 | 0.805 | 0.774 | 1.06 | 0.897 | 1.06 | 1.08 | 0.692 | 0.574 | 0.502 | 0.534 | 0.981 | 0.937 | 0.974 | 1.03 | 0.91 | 1.04 |
| NCI-H358 | 0.308 | 0.387 | 0.319 | 0.321 | 0.31 | 0.779 | 0.485 | 0.583 | 0.596 | 0.468 | – | 0.129 | 0.116 | 0.385 | 0.369 | 0.371 | – | 0.563 | 0.517 |
| NCI-H1734 | 0.53 | 0.435 | 0.468 | 0.452 | 0.447 | 0.703 | 0.515 | 0.632 | 0.622 | 0.551 | 0.348 | 0.363 | 0.326 | 0.617 | 0.67 | 0.343 | 0.703 | 0.559 | 0.469 |
| NCI-H2087 | 0.988 | 0.698 | 1.01 | 0.974 | 0.836 | 0.626 | 0.476 | 0.671 | 0.723 | 0.656 | 0.253 | 0.183 | 0.261 | 1.4 | 1.31 | 1.31 | 0.643 | 0.609 | 0.637 |
| NCI-H460 | 0.388 | 0.374 | 0.371 | 0.329 | 0.32 | 0.412 | 0.363 | 0.464 | 0.442 | 0.466 | 0.16 | 0.133 | 0.113 | 0.571 | 0.555 | 0.625 | 0.452 | 0.432 | 0.407 |
| NCI-H1793 | 0.402 | 0.276 | 0.34 | 0.258 | 0.389 | 0.686 | – | 0.789 | 0.893 | 0.954 | 0.258 | 0.22 | 0.258 | 0.409 | 0.426 | 0.246 | 0.791 | 0.574 | 0.692 |
| A-427 | 0.707 | 0.735 | 0.638 | 0.781 | 0.483 | 0.81 | 0.813 | 0.705 | 0.778 | 0.652 | 0.449 | 0.454 | 0.476 | 0.879 | 0.734 | 0.695 | 0.807 | 0.673 | 0.778 |
